{
  "source": "patent US10344034B2",
  "about": "“Pyrazolopyrimidone or Pyrrolotriazone derivatives, method of preparing same, and pharmaceutical applications thereof” (Shanghai Hengrui Pharmaceutical Co., Ltd., priority 2013, dated 2019)",
  "experiment": "Beagle pharmacokinetics assay",
  "type": "in vivo, beagles",
  "details": "for AUC: read-out: Area under curve AUC; for half-life: read-out: Half-life T1/2 (converted); for MRT: read-out: Residence time MRT",
  "experimental": "Test Example 6. Beagle Pharmacokinetics Assay of Example 11 of the Present Invention\nBeagles were used as test animals. The plasma concentrations at various times were determined by LC/MS/MS after intragastric administration of the compound of Example 11, and intravenous administration of the compound of Example 11 to beagles. The pharmacokinetic behavior of the present compound in beagles was studied, and the pharmacokinetic features were evaluated.\nEight (8) healthy beagles (half female and half male) were evenly designated into 2 groups. The animals were purchased from SuzhouXishan Zhongke Laboratory Animal Corp. Ltd.\nAn appropriate amount of sample was weighed, and added with 0.5% CMC-Na to form a 1.0 mg/ml suspension upon ultrasonic treatment;\nAppropriate amounts of drugs were weighed, and dissolved with 5 ml DMSO and 5 ml of Tween 80. Saline solution was added to the final volume.\nEight (8) healthy beagles (half female and half male) were evenly designated into 2 groups, and administered by oral gavage or intravenous injection (i.v.) (oral gavage at a dosage of 5 mg/kg with an administration volume of 5 ml/kg, and i.v. at a dosage of 2 mg/kg with an administration volume of 2 ml/kg) after fasting overnight.\n1.0 ml of blood was sampled from the foreleg vein before, and 0.25, 0.5, 1, 2, 4, 6, 8, 12, and 24 hours after oral administration, collected in a heparinized test tube, and centrifuged at 3500 rpm for 10 minutes to separate the plasma, which was stored at −20° C. The animals were allowed access to feed 2 hours after administration. Blood was sampled before, and 5 minutes, 0.25, 0.5, 1, 2, 4, 6, 8, 12, and 24 hours after intravenous administration, and treated the same as above. The content of the test compound in the plasma of beagles after administration of the compound by oral gavage and intravenous injection was determined by LC/MS/MS.",
  "key": {"[1]": {"details": "both sexes, dog, plasma, iv, i.v. 2 mg/kg"}, "[2]": {"details": "both sexes, dog, plasma, oral 5 mg/kg"}},
  "note": "Read-outs that look alike come from different tables or passages of the source.",
  "data": [
    {"compound": "CONC(=O)Nc1ccc(-n2nc3c(c2CN(C)C)c(=O)n(-c2ccc(OC)nn2)c(=O)n3Cc2c(F)cccc2F)cc1", "note": "[Example 11, 1-(4-(7-(2,6-difluorobenzyl)-3-((dimethylamino)methyl)-5-(6-methoxypyridazin-3-yl)-4,6-dioxo-4,5,6,7-tetrahydro-2H-pyrazolo[3,4-d]pyrimidin-2-yl)phenyl)-3-methoxyurea]", "values": [
      {"measurement": "AUC", "setting": "[1]", "result": "2300 ± 213", "unit": "ng·h/mL"},
      {"measurement": "half-life", "setting": "[1]", "result": "3.34 ± 0.4", "unit": "h"},
      {"measurement": "MRT", "setting": "[1]", "result": "4.02 ± 0.5", "unit": "h"},
      {"measurement": "Vd/F", "setting": "both sexes, dog, plasma, oral 5 mg/kg, read-out: Apparent volume of distribution Vz/F", "result": "7.25 ± 4.37", "unit": "L/kg"},
      {"measurement": "AUC", "setting": "[2]", "result": "5940 ± 1340", "unit": "ng·h/mL"},
      {"measurement": "CL/F", "setting": "both sexes, dog, plasma, oral 5 mg/kg, read-out: Clearance rate CL/F", "result": "14.7 ± 4.2", "unit": "mL/min/kg"},
      {"measurement": "half-life", "setting": "[2]", "result": "5.37 ± 1.52", "unit": "h"},
      {"measurement": "Cmax", "setting": "both sexes, dog, plasma, oral 5 mg/kg, read-out: Plasma concentration Cmax", "result": "1090 ± 350", "unit": "ng/mL"},
      {"measurement": "MRT", "setting": "[2]", "result": "6.4 ± 2.82", "unit": "h"},
      {"measurement": "Apparent volume of distribution Vz/F", "setting": "i.v. 2 mg/kg", "result": "4.235 ± 0.706", "unit": "L/kg"},
      {"measurement": "Clearance rate CL/F", "setting": "i.v. 2 mg/kg", "result": "14.6 ± 1.3", "unit": "mL/min/kg"}
    ]}
  ]
}
